The target of this assay is T1, human FSH receptor (Homo sapiens, UniProt P23945).
T1 construct: expressed in transfected cells
T1 sequence (P23945 18-695): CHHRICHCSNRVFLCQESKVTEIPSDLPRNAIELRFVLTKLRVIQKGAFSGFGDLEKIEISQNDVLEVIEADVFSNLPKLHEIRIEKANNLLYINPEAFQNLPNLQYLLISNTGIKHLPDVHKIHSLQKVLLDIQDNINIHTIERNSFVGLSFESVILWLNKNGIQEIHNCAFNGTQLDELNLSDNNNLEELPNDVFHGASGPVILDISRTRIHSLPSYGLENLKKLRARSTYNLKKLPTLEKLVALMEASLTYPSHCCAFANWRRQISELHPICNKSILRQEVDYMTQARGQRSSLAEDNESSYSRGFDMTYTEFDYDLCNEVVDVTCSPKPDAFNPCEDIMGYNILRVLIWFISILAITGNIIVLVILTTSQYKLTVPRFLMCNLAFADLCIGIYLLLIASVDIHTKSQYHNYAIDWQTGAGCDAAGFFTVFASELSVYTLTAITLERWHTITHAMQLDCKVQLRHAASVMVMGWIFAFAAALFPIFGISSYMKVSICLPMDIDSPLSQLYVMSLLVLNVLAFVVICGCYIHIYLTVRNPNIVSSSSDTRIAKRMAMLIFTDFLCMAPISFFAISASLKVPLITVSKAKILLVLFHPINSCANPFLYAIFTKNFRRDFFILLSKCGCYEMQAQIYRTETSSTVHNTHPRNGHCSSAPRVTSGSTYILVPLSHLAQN
Put plainly: hFSHRago (CHO luc): agonistic activity at the human FSH receptor expressed in CHO cells, CRE-luciferase reporter. The format is cell-based. The settings on record: CHO cells stably transfected with human FSH receptor and CRE/luciferase reporter; 4 hours of incubation.
Source text: The term EC50 means the concentration of the test compound that elicits half-maximal (50%) stimulation compared to the compound's maximally attainable effect. The values can be determined e.g. in a cell line transfected with a FSH receptor gene and cotransfected with a cAMP responsive element/promoter directing the expression of a reporter gene. Values can be determined using the software program such as MathIQ (version 2.0, ID Business Solutions Limited).
Agonistic activity of the compounds at the human FSH receptor was determined in Chinese Hamster Ovary (CHO) cells stably transfected with the human FSH receptor and cotransfected with a cAMP responsive element (CRE)/promoter directing the expression of a firefly luciferase reporter gene. […] Cells (7,500 cells/well of a 384 well plate) were incubated in Dulbecco' minimal essential F12 modified medium (Invitrogen), supplemented with 1 μg/ml bovine insulin, 5 μg/ml human apo-transferrin, 80 U/ml penicillin G and 80 μg/ml streptomycin with the test compounds (concentration between 0.0316 nM and 10.0 μM) in duplicate in a humidified atmosphere (95%) at 5-7% CO2 and 37° C. The final concentration of DMSO was 1%. After 4 hours of incubation, plates were allowed to adjust to room temperature for 1 hour. Then, Luclite (PerkinElmer) solution was added to the wells and cells were allowed to lyse for at least 1 hour at room temperature. Subsequently, luciferase activity was measured in a luminescence counter. The signal is expressed as counts per second (cps). The EC50 (concentration of the test compound that elicits half-maximal (50%) luciferase stimulation compared to the compound's maximally attainable effect) and efficacy values (maximal effect of the test compound as percentage of the maximal effect of recombinant human FSH) of the compounds were determined using the software program MathIQ (version 2.0, ID Business Solutions Limited).
For the compound `COc1cc2c(cc1OC(C)C)-c1c(-c3cccs3)cc(C(=O)N3CCCN(C(=O)C4CCCO4)CC3)n1CC2` (stereo not drawn) [Example 1, (9-Isopropoxy-8-methoxy-1-thiophen-2-yl-5,6-dihydro-pyrrolo[2,1-α]isoquinolin-3-yl)-[4-(tetrahydro-furan-2-carbonyl)-[1,4]diazepan-1-yl]-methanone], the half-maximal effective concentration (EC50) was 0.9 nM.
The figure for `COc1cc2c(cc1OC(C)C)-c1c(-c3cccs3)cc(C(=O)N3CCCN(C(=O)CSC)CC3)n1CC2` [Example 2, 1-[4-(9-Isopropoxy-8-methoxy-1-thiophen-2-yl-5,6-dihydro-pyrrolo[2,1-α]isoquinoline-3-carbonyl)-[1,4]diazepan-1-yl]-2-methylsulfanyl-ethanone] is 0.5 nM; for `COc1cc2c(cc1OC(C)C)-c1c(-c3cccs3)cc(C(=O)N3CCCN(S(=O)(=O)c4cccs4)CC3)n1CC2` [Example 3, (9-Isopropoxy-8-methoxy-1-thiophen-2-yl-5,6-dihydro-pyrrolo[2,1-α]isoquinolin-3-yl)-[4-(thiophene-2-sulfonyl)-[1,4]diazepan-1-yl]-methanone] it is 4.6 nM.
For `COc1cc2c(cc1OC(C)C)-c1c(-c3cccs3)cc(C(=O)N3CCCN(C(=O)C(O)C(F)(F)F)CC3)n1CC2` (stereo not drawn) [Example 4, 3,3,3-Trifluoro-2-hydroxy-1-[4-(9-isopropoxy-8-methoxy-1-thiophen-2-yl-5,6-dihydro-pyrrolo[2,1-α]isoquinoline-3-carbonyl)-[1,4]diazepan-1-yl]-propan-1-one], a half-maximal response (EC50) required 1.3 nM.
On to `COc1cc2c(cc1OC(C)C)-c1c(-c3cccs3)cc(C(=O)N3CCCN(C(=O)CCN)CC3)n1CC2` [Example 5, 3-Amino-1-[4-(9-isopropoxy-8-methoxy-1-thiophen-2-yl-5,6-dihydro-pyrrolo[2,1-α]isoquinoline-3-carbonyl)-[1,4]diazepan-1-yl]-propan-1-one], for which it took 1400 nM to reach a half-maximal effect (EC50).
Next, `CNCC(=O)N1CCCN(C(=O)c2cc(-c3cccs3)c3n2CCc2cc(OC)c(OC(C)C)cc2-3)CC1` [Example 6, 1-[4-(9-Isopropoxy-8-methoxy-1-thiophen-2-yl-5,6-dihydro-pyrrolo[2,1-α]isoquinoline-3-carbonyl)-[1,4]diazepan-1-yl]-2-methylamino-ethanone]: 264 nM; `COc1cc2c(cc1OC(C)C)-c1c(-c3cccs3)cc(C(=O)N3CCCN(C(=O)C4CCC4)CC3)n1CC2` [Example 7c, (4-Cyclobutanecarbonyl-[1,4]diazepan-1-yl)-(9-isopropoxy-8-methoxy-1-thiophen-2-yl-5,6-dihydro-pyrrolo[2,1-α]isoquinolin-3-yl)-methanone]: 1.7 nM; `COc1cc2c(cc1OC(C)C)-c1c(-c3cccs3)c(C#N)c(C(=O)N3CCCN(C(=O)C4CCC4)CC3)n1CC2` [Example 7d, 3-(4-Cyclobutanecarbonyl-[1,4]diazepane-1-carbonyl)-9-isopropoxy-8-methoxy-1-thiophen-2-yl-5,6-dihydro-pyrrolo[2,1-α]isoquinoline-2-carbonitrile]: 0.3 nM.
Next, `COc1cc2c(cc1OC(C)C)-c1c(-c3cccs3)cc(C(=O)N3CCCN(C(=O)C4(Br)CCC4)CC3)n1CC2` [Example 8, [4-(1-Bromo-cyclobutanecarbonyl)-[1,4]diazepan-1-yl]-(9-isopropoxy-8-methoxy-1-thiophen-2-yl-5,6-dihydro-pyrrolo[2,1-α]isoquinolin-3-yl)-methanone]: 6.8 nM; `COc1cc2c(cc1OC(C)C)-c1c(-c3cccs3)cc(C(=O)N3CCCN(C(=O)C4(SC)CCC4)CC3)n1CC2` [Example 9, (9-Isopropoxy-8-methoxy-1-thiophen-2-yl-5,6-dihydro-pyrrolo[2,1-α]isoquinolin-3-yl)-[4-(1-methylsulfanyl-cyclobutanecarbonyl)-[1,4]diazepan-1-yl]-methanone]: 16.4 nM.
The figure for `COc1cc2c(cc1OC(C)C)-c1c(-c3cccs3)cc(C(=O)N3CCCN(C(=O)C4(O)CCC4)CC3)n1CC2` [Example 10, [4-(1-Hydroxy-cyclobutanecarbonyl)-[1,4]diazepan-1-yl]-(9-isopropoxy-8-methoxy-1-thiophen-2-yl-5,6-dihydro-pyrrolo[2,1-α]isoquinolin-3-yl)-methanone] is 1.4 nM; for `COc1cc2c(cc1OC(C)C)-c1c(-c3cccs3)cc(C(=O)N3CCCN(C(=O)C4(OC)CCC4)CC3)n1CC2` [Example 11, (9-Isopropoxy-8-methoxy-1-thiophen-2-yl-5,6-dihydro-pyrrolo[2,1-α]isoquinolin-3-yl)-[4-(1-methoxy-cyclobutanecarbonyl)-[1,4]diazepan-1-yl]-methanone] it is 5.4 nM; for `COc1cc2c(cc1OC(C)C)-c1c(-c3cccs3)cc(C(=O)N3CCCN(C(C)=O)CC3)n1CC2` [Example 12a] it is 5.2 nM.
As for `COc1cc2c(cc1OC(C)C)-c1c(-c3cccs3)c(Cl)c(C(=O)N3CCCN(C(C)=O)CC3)n1CC2` [Example 12b, 1-[4-(2-Chloro-9-isopropoxy-8-methoxy-1-thiophen-2-yl-5,6-dihydro-pyrrolo[2,1-α]isoquinoline-3-carbonyl)-[1,4]diazepan-1-yl]-ethanone], the EC50 worked out at 1.9 nM. This EC50 is about 2.7-fold lower than that of the compound before.
The figure for `COc1cc2c(cc1OC(C)C)-c1c(-c3cccs3)cc(C(=O)N3CCNC(=O)CC3)n1CC2` [Example 13, 1-(9-Isopropoxy-8-methoxy-1-thiophen-2-yl-5,6-dihydro-pyrrolo[2,1-α]isoquinoline-3-carbonyl)-[1,4]diazepan-5-one] is 106 nM.
In the case of `CCCCN1CCN(C(=O)c2cc(-c3cccs3)c3n2CCc2cc(OC)c(OC(C)C)cc2-3)CCC1=O` [Example 14a, 4-Butyl-1-(9-isopropoxy-8-methoxy-1-thiophen-2-yl-5,6-dihydro-pyrrolo[2,1-α]iso-quinoline-3-carbonyl)-[1,4]diazepan-5-one], it took 0.8 nM to reach a half-maximal effect (EC50).
`CCCCN1CCN(C(=O)c2cc(-c3cccs3)c3n2CCc2cc(OC)c(OCC(=O)OCC)cc2-3)CCC1=O` [Example 14c, [3-(4-Butyl-5-oxo-[1,4]diazepane-1-carbonyl)-8-methoxy-1-thiophen-2-yl-5,6-dihydro-pyrrolo[2,1-α]isoquinolin-9-yloxy]-acetic acid ethyl ester] returned an EC50 of 11 nM.
As for `CCCCN1CCN(C(=O)c2cc(-c3cccs3)c3n2CCc2cc(OC)c(OCC(C)(C)O)cc2-3)CCC1=O` [Example 14d, 4-Butyl-1-[9-(2-hydroxy-2-methyl-propoxy)-8-methoxy-1-thiophen-2-yl-5,6-dihydro-pyrrolo[2,1-α]isoquinoline-3-carbonyl]-[1,4]diazepan-5-one], a half-maximal effect (EC50) was put at 1.5 nM.
With `COc1cc2c(cc1OC(C)C)-c1c(-c3cccs3)cc(C(=O)N3CC=CC3)n1CC2` [Example 15, (2,5-Dihydro-pyrrol-1-yl)-(9-isopropoxy-8-methoxy-1-thiophen-2-yl-5,6-dihydro-pyrrolo[2,1-α]isoquinolin-3-yl)-methanone], the response was half-maximal at 249 nM (EC50).
In the case of `COc1cc2c(cc1OC(C)C)-c1c(-c3cccs3)cc(C(=O)N3CCCN(S(=O)(=O)c4ccc(C)cc4)CCC3)n1CC2` [Example 17, (9-Isopropoxy-8-methoxy-1-thiophen-2-yl-5,6-dihydro-pyrrolo[2,1-α]isoquinolin-3-yl)-[5-(toluene-4-sulfonyl)-perhydro-1,5-diazocin-1-yl]-methanone], the EC50 was 914 nM.
Compound `COc1cc2c(cc1OC(C)C)-c1c(-c3cccs3)cc(C(=O)N3CC4CC(CN(C(C)=O)C4)C3)n1CC2` [Example 20, 1-[7-(9-isopopoxy-8-methoxy-1-thiophen-2-yl-5,6-dihydro-pyrrolo[2,1-α]isoquinoline-3-carbonyl)-3,7-diaza-bicyclo[3.3.1]non-3-yl]-ethanone] registered an EC50 of 8.2 nM.
The compound `COc1cc2c(cc1OC(C)C)-c1c(-c3cccs3)cc(C(=O)N3CC4CC(CN(C(=O)CSC)C4)C3)n1CC2` [Example 21, 1-[7-(9-Isopropoxy-8-methoxy-1-thiophen-2-yl-5,6-dihydro-pyrrolo[2,1-α]isoquinoline-3-carbonyl)-3,7-diaza-bicyclo[3.3.1]non-3-yl]-2-methylsulfanyl-ethanone] registered an EC50 of 77.8 nM.
For the compound `COc1cc2c(cc1OC(C)C)-c1c(-c3cccs3)cc(C(=O)N3CC4CC(C3)CN(C(=O)C3CCC3)C4)n1CC2` [Example 22, (7-Cyclobutanecarbonyl-3,7-diaza-bicyclo[3.3.1]non-3-yl)-(9-isopropoxy-8-methoxy-1-thiophen-2-yl-5,6-dihydro-pyrrolo[2,1-α]isoquinolin-3-yl)-methanone], the response was half-maximal at 8.9 nM (EC50).
For the compound `COc1cc2c(cc1OC(C)C)-c1c(-c3cccs3)cc(C(=O)NC3C[C@@H]4CN(C(C)=O)C[C@@H]4C3)n1CC2` (stereo partly drawn) [Example 23, 9-Isopropoxy-8-methoxy-1-thiophen-2-yl-5,6-dihydro-pyrrolo[2,1-α]isoquinoline-3-carboxylic acid (2-acetyl-octahydro-cyclopenta[c]pyrrol-5(endo)-yl)-amide], a half-maximal effect (EC50) was put at 787 nM. This EC50 lies about 88-fold higher than the previous one.

The values above are taken from patent US8394789B2, “(Dihydro)pyrrolo[2,1-α]isoquinolines” (MSD Oss B.V., priority 2008, dated 2013).
